Measured values from patent US20240053332A1, “Methods and Compositions Utilising Vitamin B12 Binding” (priority 2020, published 2024).

Tests used:
[1] = test system: Bacteroides thetaiotaomicron (Bt); assay: growth of Bt dependent upon vitB12; type: cell-based
Protocol: Less growth is seen with serial 10-fold dilutions of B12-bound BEVs. By contrast and as controls, no growth is seen by adding 1 mM vitB12 directly to the cultures or by adding BEVs alone with no bound vitB12.

[2] = biological target: BtuG2; assay: affinity of BtuG2 protein for B12; type: binding
Text: We believe that it is possible to exploit this tight interaction in the same way as the Biotin-avidin system. We have shown that it is possible to attach protein-linkers to vitamin B12, allow vitamin B12 to become attached to proteins that have the necessary exposed amino acid side chains. […] The attachment is specific and strong. • (b) With Mologic, we have shown that a B12-maleimide will bind to a lactate dehydrogenase antibody, allowing the complex to be used in an immunoassay. This provides the proof of principal that the B12-B12 binding protein system can be exploited in therapeutic assays and diagnostics in the same way as biotin-avidin.

Q: What does the source list for cobalamin [vitB12]?
A: growth of Bt in vitB12-deficient media ([1]; FIG. 1 left panel, 1 mM vitB12, bound to BEVs or added directly to the cultures): no growth; vitB12 concentration giving maximal growth of Bt ([1]; FIG. 1 right panel, no growth in its absence (0 nM)): 100 nM; affinity of BtuG2 for B12 [2]: femtomolar region
